Measurements as given in article PMC10791936, “Engineering allosteric inhibition of homoserine dehydrogenase by semi-rational saturation mutagenesis screening” (Frontiers in Bioengineering and Biotechnology, 2024).
Values belong to the molecule of their own block, whether it stands above or below them.

What was measured:
CgHSD [1] = target: T1, CgHSD (Corynebacterium glutamicum, UniProt P08499, A384D); experiment: enzyme activity inhibition, NADPH formation; assay type: biochemical; settings: allosteric; 50 mM L-isoleucine; stated gain
T1 construct: gene hom; full-length hom in pET-28a, N-terminal His6 tag, expressed in E. coli Transetta (DE3), Ni purified; homotetramer by SEC

CgHSD [2] = target: T2, CgHSD (Corynebacterium glutamicum, UniProt P08499); experiment: enzyme activity inhibition, NADPH formation; assay type: biochemical; settings: feedback inhibitor, allosteric; 5 mM L-isoleucine
T2 construct: gene hom; full-length hom in pET-28a, N-terminal His6 tag, expressed in E. coli Transetta (DE3), Ni purified; homotetramer by SEC

CgHSD [3] = target: T3, CgHSD (Corynebacterium glutamicum, UniProt P08499, G378E); experiment: enzyme activity inhibition, NADPH formation; assay type: biochemical; settings: allosteric; 50 mM L-isoleucine; stated gain
T3 construct: gene hom; full-length hom in pET-28a, N-terminal His6 tag, expressed in E. coli Transetta (DE3), Ni purified; homotetramer by SEC

CgHSD [4] = target: T4, CgHSD (Corynebacterium glutamicum, UniProt P08499, I397V); experiment: enzyme activity inhibition, NADPH formation; assay type: biochemical; settings: allosteric; 50 mM L-isoleucine; stated gain
T4 construct: gene hom; full-length hom in pET-28a, N-terminal His6 tag, expressed in E. coli Transetta (DE3), Ni purified; homotetramer by SEC

CgHSD [5] = target: T4, CgHSD; experiment: enzyme activity inhibition, NADPH formation; assay type: biochemical; settings: allosteric; 10 mM L-threonine; stated gain
CgHSD [6] = target: T3, CgHSD; experiment: enzyme activity inhibition, NADPH formation; assay type: biochemical; settings: allosteric; 50 mM L-threonine; stated gain
CgHSD [7] = target: T1, CgHSD; experiment: enzyme activity inhibition, NADPH formation; assay type: biochemical; settings: allosteric; 10 mM L-threonine; stated gain
CgHSD [8] = target: T2, CgHSD; experiment: enzyme activity inhibition, NADPH formation; assay type: biochemical; settings: feedback inhibitor, allosteric; 1 mM L-threonine
[9] = target: the molecule itself; experiment: SEC; apparent molecular mass from a standard curve; peaks at 11.8 mL of elution volume; column and buffer not shown (Supplementary Figure S2)

T3 sequence (P08499 whole entry G378E): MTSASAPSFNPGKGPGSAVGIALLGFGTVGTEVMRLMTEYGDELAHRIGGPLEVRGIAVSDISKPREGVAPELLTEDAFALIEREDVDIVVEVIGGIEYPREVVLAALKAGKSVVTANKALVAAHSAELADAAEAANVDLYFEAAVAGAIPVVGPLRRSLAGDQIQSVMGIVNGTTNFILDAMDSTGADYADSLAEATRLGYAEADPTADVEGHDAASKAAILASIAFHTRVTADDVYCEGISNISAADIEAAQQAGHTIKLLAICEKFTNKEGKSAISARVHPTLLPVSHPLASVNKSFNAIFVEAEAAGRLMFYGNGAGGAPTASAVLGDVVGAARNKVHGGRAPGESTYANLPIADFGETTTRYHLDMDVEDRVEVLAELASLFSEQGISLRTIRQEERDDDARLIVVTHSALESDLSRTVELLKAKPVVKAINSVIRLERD

% activity maintained at 50 mM (CgHSD [1]): 76.5%
% activity loss at 5 mM (CgHSD [2]): > 75%
% activity maintained at 50 mM (CgHSD [3]): 61.0%
% activity maintained at 50 mM (CgHSD [4]): 50.1%
Molecule: CC[C@H](C)[C@H](N)C(=O)O [L-isoleucine]

% activity kept at 10 mM (CgHSD [5]): > 90%
% retained activity at 50 mM (CgHSD [6]): 52.7%
% activity kept at 10 mM (CgHSD [7]): > 90%
% activity loss at 1 mM (CgHSD [8]): > 80%
Molecule: C[C@@H](O)[C@H](N)C(=O)O [L-threonine]

B1: Homoserine dehydrogenase from Corynebacterium glutamicum (CgHSD), wild type (enzyme, Corynebacterium glutamicum ATCC 13032, UniProt P08499 1-445, looked up)
chain: MTSASAPSFNPGKGPGSAVGIALLGFGTVGTEVMRLMTEYGDELAHRIGGPLEVRGIAVSDISKPREGVAPELLTEDAFALIEREDVDIVVEVIGGIEYPREVVLAALKAGKSVVTANKALVAAHSAELADAAEAANVDLYFEAAVAGAIPVVGPLRRSLAGDQIQSVMGIVNGTTNFILDAMDSTGADYADSLAEATRLGYAEADPTADVEGHDAASKAAILASIAFHTRVTADDVYCEGISNISAADIEAAQQAGHTIKLLAICEKFTNKEGKSAISARVHPTLLPVSHPLASVNKSFNAIFVEAEAAGRLMFYGNGAGGAPTASAVLGDVVGAARNKVHGGRAPGESTYANLPIADFGETTTRYHLDMDVEDRVGVLAELASLFSEQGISLRTIRQEERDDDARLIVVTHSALESDLSRTVELLKAKPVVKAINSVIRLERD
notes: Homoserine dehydrogenase (hom gene) of Corynebacterium glutamicum ATCC 13032, amplified from genomic DNA into pET-28a (pET-hom); printed mass of the monomer 46.4 kDa; also called wild-type CgHSD
stoichiometry N [9]: 4

B2: Homoserine dehydrogenase from Corynebacterium glutamicum (CgHSD), I397V mutant (enzyme, Corynebacterium glutamicum ATCC 13032, UniProt P08499 1-445, looked up)
chain: MTSASAPSFNPGKGPGSAVGIALLGFGTVGTEVMRLMTEYGDELAHRIGGPLEVRGIAVSDISKPREGVAPELLTEDAFALIEREDVDIVVEVIGGIEYPREVVLAALKAGKSVVTANKALVAAHSAELADAAEAANVDLYFEAAVAGAIPVVGPLRRSLAGDQIQSVMGIVNGTTNFILDAMDSTGADYADSLAEATRLGYAEADPTADVEGHDAASKAAILASIAFHTRVTADDVYCEGISNISAADIEAAQQAGHTIKLLAICEKFTNKEGKSAISARVHPTLLPVSHPLASVNKSFNAIFVEAEAAGRLMFYGNGAGGAPTASAVLGDVVGAARNKVHGGRAPGESTYANLPIADFGETTTRYHLDMDVEDRVGVLAELASLFSEQGISLRTVRQEERDDDARLIVVTHSALESDLSRTVELLKAKPVVKAINSVIRLERD
stoichiometry N [9]: 4

B3: Homoserine dehydrogenase from Corynebacterium glutamicum (CgHSD), A384D mutant (enzyme, Corynebacterium glutamicum ATCC 13032, UniProt P08499 1-445, looked up)
chain: MTSASAPSFNPGKGPGSAVGIALLGFGTVGTEVMRLMTEYGDELAHRIGGPLEVRGIAVSDISKPREGVAPELLTEDAFALIEREDVDIVVEVIGGIEYPREVVLAALKAGKSVVTANKALVAAHSAELADAAEAANVDLYFEAAVAGAIPVVGPLRRSLAGDQIQSVMGIVNGTTNFILDAMDSTGADYADSLAEATRLGYAEADPTADVEGHDAASKAAILASIAFHTRVTADDVYCEGISNISAADIEAAQQAGHTIKLLAICEKFTNKEGKSAISARVHPTLLPVSHPLASVNKSFNAIFVEAEAAGRLMFYGNGAGGAPTASAVLGDVVGAARNKVHGGRAPGESTYANLPIADFGETTTRYHLDMDVEDRVGVLAELDSLFSEQGISLRTIRQEERDDDARLIVVTHSALESDLSRTVELLKAKPVVKAINSVIRLERD
stoichiometry N [9]: 4
